From patent US9012403B2, “Peptides as active agents to stabilize biological barriers” (XiberScience GmbH, priority 2010, dated 2015)
Marks after values point to notes of the source that are not given here.

Tests used:
[1] = system: Phosphorylated Myosin Light Chain (MLC) and actin stress fibers; test: MLC phosphorylation and actin stress fiber formation in ECV304 cells (microscopy score); type: cell-based; conditions: ECV 304, Thrombin 1 U/ml, with or without peptide 50 μg/ml
Method: (§1) To measure MLC phosphorylation and actin stress fiber formation, the following cell lines were used: Caco-2, ECV304 and HpMec. All cells were grown at standard conditions (37° C., 5% CO2 and 95% rH). Culture Medium used: for Caco-2: DMEM+1 mM sodium pyruvate+20% FCS+1% Penicillin Streptomycin; for ECV 304: RPMI 1640+10% FCS+1% Penicillin Streptomycin; and for HpMec: IMDM+25 mM Hepes+10% Human Serum+1% Penicillin Streptomycin+1% L-Glutamine+ECGS/Heparin 2 ml. 4 h before the experiment, cells were starved by serum withdrawal. To induce GEF-activity, cells were stimulated with thrombin, LPS or PMA for the indicated time in presence or absence of 50 μg/ml XIB1-a or XIB1-b. After stimulation, cells were fixed using 4% PFA. Phospho MLC was detected by using the “rabbit anti phosphor-myosin light chain antibody” from Chemicon in a concentration of 3 μl/ml in PBS (Gibco) supplemented with 0.1% Triton X-100. As detection antibody, the Alexa 448 tagged “anti Rabbit IgG Antibody” from Invitrogen was used in a concentration of 0.5 μl/ml in PBS (Gibco) supplemented with 0.1% Triton X-100. Aktin was detected using TRITC-labeled Phalloidin in a concentration of 0.5 μl/ml in PBS (Gibco) supplemented with 0.1% Triton. Stained cells were analyzed by using a Zeiss Laser Scan microscope. Evaluation of the cyto-skeletal activation was performed by 2 independent observers that were blinded to the conditions. Evaluation criteria were set as follows:
(§2) Actin: parallel actin bundles absent=0; distinct bundle formation=1; prominent parallel bundles=2; Phospho-MLC: present at cell poles=0; slight co-localization with actin bundles=1; prominent co-localization with actin bundles=2

[2] = system: GEF; test: GEF-activity in membrane fractions of ECV304 cells (RhoGEF Exchange Assay); type: cell-based; conditions: ECV 304, Thrombin 1 U/ml, with or without peptide 50 μg/ml
Method: (§3) To measure the GEF-inhibitory effect, the following cell lines were used: Caco-2 (epithelial cells from adeno-carcinoma), ECV304 (epithelial cells from bladder carcinoma) and HpMec (endothelial cells, immortalized pulmonary micro-vascular cells). All cells were grown at standard conditions (37° C., 5% CO2 and 95% relative humidity (rH)). Culture Medium used for Caco-2: DMEM+1 mM sodium pyruvate+20% FCS+1% Penicillin Streptomycin; for ECV 304: RPMI 1640+10% FCS+1% Penicillin Streptomycin; and for HpMec: IMDM+25 mM Hepes+10% Human Serum+1% Penicillin Streptomycin+1% L-Glutamine+ECGS/Heparin 2 ml. 4 h before the experiment, cells were starved by serum withdrawal. To induce GEF-activity, cells were stimulated with thrombin, lipopolysaccharide (LPS) or PMA for the indicated time in presence or absence of 50 μg/ml XIB1-a or XIB1-b. After stimulation, membrane fractions were prepared by using the commercial available “Compartemental Protein Extraction Kit” from Biochain institutes. Membrane fractions were prepared according to the manufacturer instructions. GEF-activity in membrane lysates was determined by using “RhoGEF Exchange Assay Biochem Kit” from Cytoskeleton Inc. according to manufacturer instructions. GEF-activity was measured as fluorescence at using the Fluoroskan Ascent FL 2.6 from Thermo Electron Corporation. The excitation Filter wavelength was set at 355 nm and the emission filter wavelength at 460 nm.

[3] = system: GTP-bound RhoA; test: GTP-associated active RhoA in ECV304 membrane fraction (western blot); type: cell-based; conditions: ECV 304, Thrombin 1 U/ml, with or without peptide 50 μg/ml
Method: (§4) To measure the GTP-associated active RhoA, the following cell lines were used: Caco-2, ECV304 and HpMec. All cells were grown at standard conditions (37° C., 5% CO2 and 95% rH). 4 h before the experiment, cells were starved by serum withdrawal. To induce GEF-activity, cells were stimulated with thrombin, LPS or PMA for the indicated time in presence or absence of 50 μg/ml XIB1-a or XIB1-b. After stimulation, membrane fractions were prepared by using the commercial available “Compartemental Protein Extraction Kit” from Biochain Institutes. Membrane fractions were prepared according to the manufacturer instructions. The membrane fraction was separated on 15% polyacrylamide gel according to standard procedures of gel electrophoresis. The gels were afterwards blotted on a nitrocellulose membrane according to standard procedures of western blotting. GTP-bound RhoA was detected using RhoA-GTP monoclonal antibody from NewEast Inc. in a dilution of 1:5000. Protein bands were analyzed with the Dolphin-1D Gel analysis system (Wealtec).

[4] = system: GTP-bound RhoA; test: GTP-associated active RhoA in HpMec membrane fraction (western blot); type: cell-based; conditions: for increase in RhoA-activity: HepMec cells, thrombin; for GTP-bound RhoA, relative values compared to unstimulated control (Mean): HpMec, Thrombin 1 U/ml, with or without peptide 50 μg/ml
Method: as §4

[5] = system: Phosphorylated Myosin Light Chain (MLC) and actin stress fibers; test: MLC phosphorylation and actin stress fiber formation in HpMec cells (microscopy score); type: cell-based; conditions: Thrombin 1 U/ml, with or without peptide 50 μg/ml
Method: as §1, §2

[6] = system: GEF; test: GEF-activity in membrane fractions of HpMec cells (RhoGEF Exchange Assay); type: cell-based; conditions: for increase in GEF-activity: HepMec cells, thrombin; for GEF-activity, relative values compared to unstimulated control (Mean): HpMec, Thrombin 1 U/ml, with or without peptide 50 μg/ml
Method: as §3

[7] = system: GTP-bound RhoA; test: GTP-associated active RhoA in Caco-2 membrane fraction (western blot); type: cell-based; conditions: for GTP-bound RhoA, relative values compared to unstimulated control (Mean): CaCo-2, PMA 1 μg/ml, with or without peptide 50 μg/ml; for increase of RhoA-activity: CaCo-2 cells, PMA-stimulus
Method: as §4

[8] = system: GEF; test: GEF-activity in membrane fractions of Caco-2 cells (RhoGEF Exchange Assay); type: cell-based; conditions: for GEF-activity, relative values compared to unstimulated control (Mean): CaCo-2, PMA 1 μg/ml, with or without peptide 50 μg/ml
Method: as §3

[9] = system: Phosphorylated Myosin Light Chain (MLC) and actin stress fibers; test: MLC phosphorylation and actin stress fiber formation in Caco-2 cells (microscopy score); type: cell-based; conditions: CaCo-2, PMA 1 μg/ml, with or without peptide 50 μg/ml
Method: as §1, §2

[10] = system: Ventilator-Induced Lung Injury (VILI); test: Ventilator-induced lung injury (VILI) after LPS pre-challenge; type: in vivo; conditions: mice, LPS + high tidal volume ventilation (LPS-HTV); i.v. 4 mg/kg loading, then 1 mg/kg/h
Method: Experiments were performed with healthy C57BL/6 (aged 8-10 weeks, with weights ranging from 19-25 g). All interventions were performed according to the guide lines of AAALAC. All experiment were approved by the Ethic committee of the University of Amsterdam.
Mice were challenged with LPS (dosage: 50 μg per mouse) (or saline), via intranasal injection 2 h before initiation of mechanical ventilation, to induce lung injury.
XIB1-1b (or random peptide) was administered i.v. 10 min before start of mechanical ventilation (dosage: 4 mg/kg loading dose, followed administration i.v. injections 1 mg/kg/h.
A Y-tube connector with 1.0 mm outer diameter and 0.6 mm inner diameter was surgically inserted into the trachea under general anesthesia. Mice were placed in a supine position and connected to a ventilator. Mice were pressure-controlled ventilated with either an inspiratory pressure of 10 cm H2O (resulting in VT˜7.5 mL/kg; low VT, LVT) or an inspiratory pressure of 18 cm H2O (resulting in VT˜15 mL/kg; high VT, HVT). Positive end-expiratory pressure (PEEP) is set at 2 cm H2O with both MV-strategies. The fraction of inspired oxygen was kept at 0.5 throughout the experiment. The inspiration to expiration ratio was kept at 1:1 throughout the experiment.
BALF was obtained by instilling 3 times 0.5 mL aliquots of saline by a 22-gauge Abbocath-T catheter (Abbott, Sligo, Ireland) into the trachea. Approximately, 1.0 mL of BALF was retrieved per mouse and cell counts were determined using a hemacytometer (Beckman Coulter, Fullerton, Calif.). Subsequently, differential counts were done on cytospin preparations stained with a modified Giemsa stain, Diff-Quick (Dade Behring AG, Düdingen, Switzerland). Supernatant was stored at −80° C.
Total protein levels in BALF are determined using a Bradford Protein Assay Kit (OZ Biosciences, Marseille, France) according to manufacturers' instructions with bovine serum albumin as standard. Mouse IgM was determined by ELISA by using anti-Mouse IgM sensitized 96-strip micro-well plates according to manufacturers' instructions (IMMUNO-TEK kit from ZeptoMetrix).

[11] = system: LPS induced lung injury; test: LPS induced lung injury, bronchoalveolar lavage; type: in vivo; conditions: mice, 6 h after LPS, n = 20
Method: Male C57Bl/6 Mice (Charles River, Germany) were kept at the animal facility of the Medical University of Vienna, feed with standard diet and water was provided ad libitum. All interventions were performed according to the guide lines of AAALAC (Association for Assessment and Accreditation of Laboratory Animal Care). All experiment were approved by the Ethic committee of the Medical University of Vienna. Mice were anesthetized with isoflouran and treated with 100 ng of LPS (E. coli O55:B5, Sigma Aldrich) intranasally. XIB1-a or XIB1-b was applied either intra-peritoneally (2×2 mg/kg) or via inhalation (2×4 mg/kg), first application was performed concomitantly with LPS administration, the second application was performed 1 h after the LPS inhalation.
The trachea was exposed through a midline incision and canulated with a sterile 20-gauge catheter (BD Venflon™, Becton Dickinson Infusion Therapy, Helsingborg, Sweden). Bilateral broncho-alveolar lavage fluid (BALF) was gained by instilling two 0.5 ml aliquots of sterile saline. Approximately 0.9-1 ml BALF was retrieved per mouse. Total cell numbers were counted from each sample using a hemo-cytometer (Türck chamber), BALF differential cell counts were done on cytospin preparations stained with Giemsa. For protein measurements, BALF was diluted 1:2 in buffer containing 300 mM NaCl, 30 mM Tris, 2 mM MgCl2, 2 mM CaCl2, and Pepstatin A, Leupeptin and Aprotinin (all 20 ng/ml; pH 7.4). Protein levels in BALF were measured using the BCA protein kit according to the manufacturer's instructions (Pierce, Rockford, Ill.).
In addition, the same set-up as described above was used for comparing the impact of XIB1-b compared to Bβ15-42 (PLoS ONE (2009), 4(4): e5391), a peptide derived from fibrin having the sequence […] (SEQ ID NO: 41). Bβ15-42 was added in the same manner as XIB1-b. Again, protein content and cell count of BALF was measured.

Compound: Thrombin [reference compound]
- MLC phosphorylation and actin stress fiber formation, evaluation score (Mean) ([1]; 1 min): 4
- MLC phosphorylation and actin stress fiber formation, evaluation score (Mean) ([1]; 5 min): 4
- GEF-activity, relative values compared to unstimulated control (Mean) ([2]; 1 min): 5
- GEF-activity, relative values compared to unstimulated control (Mean) ([2]; 5 min): 3.4
- GTP-bound RhoA, relative values compared to unstimulated control (Mean) ([3]; 1 min): 4.3
- GTP-bound RhoA, relative values compared to unstimulated control (Mean) ([3]; 5 min): 3.2
- increase in RhoA-activity ([4]; after 1 min): 3.8 fold
- increase in RhoA-activity ([4]; after 5 min): 3.2 fold
- GTP-bound RhoA, relative values compared to unstimulated control (Mean) ([4]; 1 min): 3.8
- GTP-bound RhoA, relative values compared to unstimulated control (Mean) ([4]; 5 min): 3.2
- MLC phosphorylation and actin stress fiber formation, evaluation score (Mean) ([5]; 1 min): 4
- MLC phosphorylation and actin stress fiber formation, evaluation score (Mean) ([5]; 5 min): 4
- increase in GEF-activity ([6]; after 1 min): 3.5 fold
- increase in GEF-activity ([6]; after 5 min): 3 fold
- GEF-activity, relative values compared to unstimulated control (Mean) ([6]; 1 min): 3.5
- GEF-activity, relative values compared to unstimulated control (Mean) ([6]; 5 min): 3

Compound: CCCCCCCCCCCCCC(=O)O[C@@H]1[C@@H](C)[C@@]2(O)[C@@H](C=C(CO)C[C@]3(O)C(=O)C(C)=C[C@@H]23)[C@@H]2C(C)(C)[C@]12OC(C)=O [PMA, reference compound]
- GTP-bound RhoA, relative values compared to unstimulated control (Mean) ([7]; 1 min): 2.3
- GTP-bound RhoA, relative values compared to unstimulated control (Mean) ([7]; 5 min): 2.0
- increase of RhoA-activity ([7]; after 5 mm of stimulation): 2 fold
- increase of RhoA-activity ([7]; after 1 min): 2.3 fold
- GEF-activity, relative values compared to unstimulated control (Mean) ([8]; 1 min): 2.5
- GEF-activity, relative values compared to unstimulated control (Mean) ([8]; 5 min): 1.8
- increase of GEF-activity ([8]; CaCo-2 cells, 1 min PMA-stimulus): 2.5 fold
- MLC phosphorylation and actin stress fiber formation, evaluation score (Mean) ([9]; 1 min): 3
- MLC phosphorylation and actin stress fiber formation, evaluation score (Mean) ([9]; 5 min): 3

Compound: GGGGGSRRIPL (/note=“Description of artificial sequence variable insert”) [scrambled peptide, scrambled peptide control in the VILI experiment, reference compound]
- IgM content in the BALF [10]: No improvement
- neutrophil count in the BALF [10]: No improvement
- total cell count in the BALF [10]: No improvement
- total protein content in the BALF [10]: No improvement

Compound: GHRPLDKKKREEAPSLRPAPPPISGGGYR (/note=“Description of artificial sequence peptide Bbeta 15-42”) [Bβ15-42, a peptide derived from fibrin]
- albumine content of BALFs (mean +/ SD) ([11]; comparison with Bβ15-42 (Table 6), intraperitoneal application): 160 ± 20 µg/mL
- counts of neutrophils in the BALF (mean +/ SD) ([11]; comparison with Bβ15-42 (Table 6), intratracheal plus intraperitoneal application): 35 +/− 10 neutrophils/ml (× 10^3)
- albumine content of BALFs (mean +/ SD) ([11]; comparison with Bβ15-42 (Table 6, last section), intraperitoneal application as printed): 152 ± 35 µg/mL
